# Patent US8815796B2, “Polyheterocyclic compounds highly potent as HCV inhibitors” (AB Pharma Ltd., priority 2010, dated 2014)
# Target: T1, HCV NS3-4A protease (Hepatitis C virus genotype 1a, UniProt P27958)
# T1 construct: HCV NS3-4A protease
# Test: HCV NS3-4A protease assay in vitro (FRET-S substrate)
# Assay type: biochemical
# Details: not given
# Method: HCV NS3-4A Protease Assay In Vitro.
# The assay was conducted in Buffer A containing 30 mM NaCl, 5 mM CaCl2, 10 mM DTT, 50 mM Tris (pH7.8), using the Ac-Asp-Glu-Asp(EDANS)-Glu-Glu-Abu-ψ-[COO]-Ala-Ser-Lys (DABCYL)-NH2 (FRET-S) fluorescent peptide (AnaSpec, USA) as substrate. Briefly, 140 μL buffer A, 20 μL compounds dissolved in buffer A with different concentration and 20 μL HCV NS3-4A protease diluted in buffer A were added into 96-well plate respectively and mixed well. The reaction was initiate with adding 20 μL of FRET-S. Reactions were continuously monitored at 37° C. using a BMG Polarstar Galaxy (MTX Lab Systems, Inc. USA), with excitation and emission filters of 355 nm and 520 nm, respectively. The 50% inhibitory concentration (IC50) was calculated with Reed & Muench methods.
# T1 sequence (P27958 1027-1657): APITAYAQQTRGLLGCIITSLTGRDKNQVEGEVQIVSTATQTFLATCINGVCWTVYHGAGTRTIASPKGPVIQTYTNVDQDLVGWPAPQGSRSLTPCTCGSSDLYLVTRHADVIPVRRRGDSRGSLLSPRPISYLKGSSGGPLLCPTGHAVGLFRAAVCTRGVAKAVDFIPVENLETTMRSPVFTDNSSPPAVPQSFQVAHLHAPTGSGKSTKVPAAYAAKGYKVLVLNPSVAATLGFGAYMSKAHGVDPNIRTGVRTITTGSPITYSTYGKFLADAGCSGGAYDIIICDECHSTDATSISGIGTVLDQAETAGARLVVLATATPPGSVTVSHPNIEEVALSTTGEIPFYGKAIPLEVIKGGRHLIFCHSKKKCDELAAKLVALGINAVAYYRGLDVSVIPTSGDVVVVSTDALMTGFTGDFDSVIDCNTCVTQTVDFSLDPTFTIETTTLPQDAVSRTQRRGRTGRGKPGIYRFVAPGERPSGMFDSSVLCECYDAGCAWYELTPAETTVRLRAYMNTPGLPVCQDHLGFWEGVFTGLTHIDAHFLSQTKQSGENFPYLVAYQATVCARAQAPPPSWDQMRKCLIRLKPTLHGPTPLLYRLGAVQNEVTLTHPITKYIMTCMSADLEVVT
# T1 sequence (P27958 1658-1711): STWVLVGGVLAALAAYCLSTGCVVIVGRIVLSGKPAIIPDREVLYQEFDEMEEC
row,SMILES,IC50
1,CCC[C@H](NC(=O)C1C[C@@H](OC(=O)N2Cc3ccc4c(c3C2)OCO4)CN1C(=O)[C@@H](NC(=O)[C@@H](NC(=O)c1cnccn1)C1CCCCC1)C(C)(C)C)C(=O)C(=O)NC1CC1 (stereo partly shown) [Compound 33c],30 to 200 nM
2,CC[C@H]1C[C@@]1(NC(=O)C1C[C@@H](OC(=O)N2Cc3cc4c(cc3C2)OCCCO4)CN1C(=O)[C@@H](NC(=O)[C@@H](NC(=O)c1cnccn1)C1CCCCC1)C(C)(C)C)C(=O)NS(=O)(=O)C1CC1 (stereo partly shown) [Compound 30h],< 30 nM
3,CC[C@H]1C[C@@]1(NC(=O)C1C[C@@H](OC(=O)N2Cc3ccc4c(c3C2)OCCCO4)CN1C(=O)[C@@H](NC(=O)[C@@H](NC(=O)c1cnccn1)C1CCCCC1)C(C)(C)C)C(=O)NS(=O)(=O)C1CC1 (stereo partly shown) [Compound 30j],< 30 nM
4,CC[C@H]1C[C@@]1(NC(=O)C1C[C@@H](OC(=O)N2Cc3cc4c(cc3C2)OCO4)CN1C(=O)[C@@H](NC(=O)[C@@H](NC(=O)OCc1ccccc1)C1CCCCC1)C(C)(C)C)C(=O)NS(=O)(=O)C1CC1 (stereo partly shown) [Compound 30y],< 30 nM
5,CC[C@H]1C[C@@]1(NC(=O)C1C[C@@H](OC(=O)N2Cc3cc4c(cc3C2)OCCCO4)CN1C(=O)[C@@H](NC(=O)[C@@H](NC(=O)OC1CCCC1)C1CCCCC1)C(C)(C)C)C(=O)NS(=O)(=O)C1CC1 (stereo partly shown) [Compound 30ae],30 to 200 nM
6,CC[C@H]1C[C@@]1(NC(=O)C1C[C@@H](OC(=O)N2Cc3cc4c(cc3C2)OCO4)CN1C(=O)[C@@H](NC(=O)[C@@H](NC(=O)OCC1c2ccccc2-c2ccccc21)C1CCCCC1)C(C)(C)C)C(=O)NS(=O)(=O)C1CC1 (stereo partly shown) [Compound 30aa],< 30 nM
7,CC[C@H]1C[C@@]1(NC(=O)C1C[C@@H](OC(=O)N2Cc3cc4c(cc3C2)OCO4)CN1C(=O)[C@@H](NC(=O)[C@@H](NC(=O)OC(C)C)C1CCCCC1)C(C)(C)C)C(=O)NS(=O)(=O)C1CC1 (stereo partly shown) [Compound 30w],< 30 nM
8,CC[C@H]1C[C@@]1(NC(=O)C1C[C@@H](OC(=O)N2Cc3cc4c(cc3C2)OCO4)CN1C(=O)[C@@H](NC(=O)[C@@H](NC(=O)OC1CCCC1)C1CCCCC1)C(C)(C)C)C(=O)NS(=O)(=O)C1CC1 (stereo partly shown) [Compound 30t],< 30 nM
9,CCC[C@H](NC(=O)C1C[C@@H](OC(=O)N2Cc3cc4c(cc3C2)OCO4)CN1C(=O)[C@@H](NC(=O)[C@@H](NC(=O)c1cnccn1)C1CCCCC1)C(C)(C)C)C(=O)C(=O)NC1CC1 (stereo partly shown) [Compound 33a],30 to 200 nM
10,CC[C@H]1C[C@@]1(NC(=O)C1C[C@@H](OC(=O)N2Cc3cc4c(cc3C2)OCO4)CN1C(=O)[C@@H](NC(=O)[C@@H](NC(=O)OC)C1CCCCC1)C(C)(C)C)C(=O)NS(=O)(=O)C1CC1 (stereo partly shown) [Compound 30x],< 30 nM
11,C=C[C@H]1C[C@@]1(NC(=O)C1C[C@@H](OC(=O)N2Cc3cc4c(cc3C2)OCO4)CN1C(=O)[C@@H](NC(=O)[C@@H](NC(=O)c1cnccn1)C1CCCCC1)C(C)(C)C)C(=O)NS(=O)(=O)C1CC1 (stereo partly shown) [Compound 30a],< 30 nM
12,C=C[C@H]1C[C@@]1(NC(=O)C1C[C@@H](OC(=O)N2Cc3cc4c(cc3C2)OCO4)CN1C(=O)[C@@H](NC(=O)[C@@H](NC(=O)NC(C)(C)C)C1CCCCC1)C(C)(C)C)C(=O)NS(=O)(=O)C1CC1 (stereo partly shown) [Compound 30ab],< 30 nM
13,C=C[C@H]1C[C@@]1(NC(=O)C1C[C@@H](OC(=O)N2Cc3ccc4c(c3C2)OCO4)CN1C(=O)[C@@H](NC(=O)[C@@H](NC(=O)c1cnccn1)C1CCCCC1)C(C)(C)C)C(=O)NS(=O)(=O)C1CC1 (stereo partly shown) [Compound 30e],< 30 nM
14,CCC[C@H](NC(=O)C1C[C@@H](OC(=O)N2Cc3cc4c(cc3C2)OCCO4)CN1C(=O)[C@@H](NC(=O)[C@@H](NC(=O)c1cnccn1)C1CCCCC1)C(C)(C)C)C(=O)C(=O)NC1CC1 (stereo partly shown) [Compound 33b],30 to 200 nM
15,CC[C@H]1C[C@@]1(NC(=O)C1C[C@@H](OC(=O)N2Cc3cc4c(cc3C2)OCO4)CN1C(=O)[C@@H](NC(=O)[C@@H](NC(=O)NC(C)(C)C)C1CCCCC1)C(C)(C)C)C(=O)NS(=O)(=O)C1CC1 (stereo partly shown) [Compound 30ac],< 30 nM
16,C=C[C@H]1C[C@@]1(NC(=O)C1C[C@@H](OC(=O)N2Cc3cc4c(cc3C2)OCCO4)CN1C(=O)[C@@H](NC(=O)[C@@H](NC(=O)c1cnccn1)C1CCCCC1)C(C)(C)C)C(=O)NS(=O)(=O)C1CC1 (stereo partly shown) [Compound 30c],< 30 nM

# Same assay, conditions: HCV NS3-4A protease inhibition, 37° C., class symbols; read-out: NS3-NS4A IC50
row,IC50,SMILES
1,< 30 nM,CN1CCCC/C=C\[C@@H]2C[C@@]2(C(=O)NS(=O)(=O)C2CC2)NC(=O)[C@@H]2C[C@@H](OC(=O)N3Cc4cc5c(cc4C3)OCO5)CC2C1=O (stereo partly shown) [Compound 21c]
2,30 to 200 nM,CC(C)S(=O)(=O)NC(=O)[C@@]12C[C@H]1/C=C\CCCCCN(C)C(=O)N1CC(OC(=O)N3Cc4cc5c(cc4C3)OCO5)C[C@H]1C(=O)N2 (stereo partly shown) [Compound 27c]
3,< 30 nM,CC[C@H]1C[C@@]1(NC(=O)C1C[C@@H](OC(=O)N2Cc3cc4c(cc3C2)OCO4)CN1C(=O)[C@@H](NC(=O)[C@@H](NS(C)(=O)=O)C1CCCCC1)C(C)(C)C)C(=O)NS(=O)(=O)C1CC1 (stereo partly shown) [Compound 30n]
4,30 to 200 nM,O=C1N[C@]2(C(=O)NS(=O)(=O)C3CC3)C[C@H]2/C=C\CCCCN(C2CC2)C(=O)C2C[C@H](OC(=O)N3Cc4cc5c(cc4C3)OCO5)C[C@@H]12 (stereo partly shown) [Compound 21a]
5,< 30 nM,O=C1N[C@]2(C(=O)NS(=O)(=O)C3CC3)C[C@H]2/C=C\CCCCC[C@H](NS(=O)(=O)c2ccc(Cl)cc2)C(=O)N2C[C@H](OC(=O)N3Cc4cc5c(cc4C3)OCO5)C[C@@H]12 [Compound 16a]
6,> 200 nM,CC(C)(C)OC(=O)N[C@H]1CCCCC/C=C\[C@@H]2C[C@@]2(C(=O)O)NC(=O)[C@@H]2C[C@@H](OC(=O)N3Cc4ccc5c(c4C3)OCCO5)CN2C1=O [Compound 11b]
7,30 to 200 nM,CN1CCCCC/C=C\[C@@H]2C[C@@]2(C(=O)NS(=O)(=O)C2CC2)NC(=O)[C@@H]2CC(OC(=O)N3Cc4cc5c(cc4C3)OCO5)CN2C1=O (stereo partly shown) [Compound 27a]
8,< 30 nM,CC(C)S(=O)(=O)NC(=O)[C@@]12C[C@H]1/C=C\CCCCC[C@H](NC(=O)OC(C)(C)C)C(=O)N1C[C@H](OC(=O)N3Cc4ccc5c(c4C3)OCCO5)C[C@H]1C(=O)N2 [Compound 12f]
9,< 30 nM,CC(C)S(=O)(=O)NC(=O)[C@@]12C[C@H]1/C=C\CCCCC[C@H](NC(=O)OC(C)(C)C)C(=O)N1C[C@H](OC(=O)N3Cc4cc5c(cc4C3)OCCO5)C[C@H]1C(=O)N2 [Compound 12g]
10,> 200 nM,CC(C)(C)OC(=O)N[C@H]1CCCCC/C=C\[C@@H]2C[C@@]2(C(=O)O)NC(=O)[C@@H]2C[C@@H](OC(=O)N3Cc4cc5c(cc4C3)OCO5)CN2C1=O [Compound 11d]
11,> 200 nM,CC(C)(C)OC(=O)N[C@H]1CCCCC/C=C\[C@@H]2C[C@@]2(C(=O)O)NC(=O)[C@@H]2C[C@@H](OC(=O)N3Cc4ccc5c(c4C3)OCO5)CN2C1=O [Compound 11a]
12,< 30 nM,CC(C)(C)OC(=O)N[C@H]1CCCCC/C=C\[C@@H]2C[C@@]2(C(=O)NS(=O)(=O)C2CC2)NC(=O)[C@@H]2C[C@@H](OC(=O)N3Cc4cc5c(cc4C3)OCCO5)CN2C1=O [Compound 12c]
13,30 to 200 nM,CN1CCCCC/C=C\[C@@H]2C[C@@]2(C(=O)NS(=O)(=O)C2CC2)NC(=O)[C@@H]2CC(OC(=O)N3Cc4cc5c(cc4C3)OCCO5)CN2C1=O (stereo partly shown) [Compound 27b]
14,< 30 nM,CC(C)S(=O)(=O)NC(=O)[C@@]12C[C@H]1/C=C\CCCCC[C@H](NC(=O)OC(C)(C)C)C(=O)N1C[C@H](OC(=O)N3Cc4cc5c(cc4C3)OCO5)C[C@H]1C(=O)N2 [Compound 12h]
15,< 30 nM,O=C(N[C@H]1CCCCC/C=C\[C@@H]2C[C@@]2(C(=O)NS(=O)(=O)C2CC2)NC(=O)[C@@H]2C[C@@H](OC(=O)N3Cc4cc5c(cc4C3)OCO5)CN2C1=O)OC1CCCC1 [Compound 12r]
16,30 to 200 nM,"O=C1N[C@]2(C(=O)NS(=O)(=O)C3CC3)C[C@H]2/C=C\CCCCCN(C2CC2)C(=O)N2CC(OC(=O)N3Cc4cccc(F)c4C3)C[C@@H]12 (stereo partly shown) [Compound 27-Ref-2, reference compound]"
17,< 30 nM,CN1CCCCC/C=C\[C@@H]2C[C@@]2(C(=O)NS(=O)(=O)C2CC2)NC(=O)[C@@H]2C[C@@H](OC(=O)N3Cc4cc5c(cc4C3)OCO5)CC2C1=O (stereo partly shown) [Compound 21e]
18,< 30 nM,CC(C)(C)OC(=O)N([C@H]1CCCCC/C=C\[C@@H]2C[C@@]2(C(=O)NS(=O)(=O)C2CC2)NC(=O)[C@@H]2C[C@@H](OC(=O)N3Cc4ccc5c(c4C3)OCO5)CN2C1=O)S(C)(=O)=O [Compound 12t]
19,30 to 200 nM,O=C1N[C@]2(C(=O)NS(=O)(=O)C3CC3)C[C@H]2/C=C\CCCCN(C2CC2)C(=O)C2C[C@H](OC(=O)N3Cc4ccc5c(c4C3)OCO5)C[C@@H]12 (stereo partly shown) [Compound 21f]
20,< 30 nM,CC(C)(C)OC(=O)N[C@H]1CCCCC/C=C\[C@@H]2C[C@@]2(C(=O)NS(=O)(=O)C2CC2)NC(=O)[C@@H]2C[C@@H](OC(=O)N3Cc4ccc5c(c4C3)OCO5)CN2C1=O [Compound 12a]
21,30 to 200 nM,O=C1N[C@]2(C(=O)NS(=O)(=O)C3CC3)C[C@H]2/C=C\CCCCC[C@H](N2CCCS2(=O)=O)C(=O)N2C[C@H](OC(=O)N3Cc4cccc(F)c4C3)C[C@@H]12 [Compound 12m]
22,< 30 nM,O=C1N[C@]2(C(=O)NS(=O)(=O)C3CC3)C[C@H]2/C=C\CCCCC[C@H](Nc2ccccc2)C(=O)N2C[C@H](OC(=O)N3Cc4cc5c(cc4C3)OCO5)C[C@@H]12 [Compound 15a]
23,< 30 nM,CC[C@H]1C[C@@]1(NC(=O)C1C[C@@H](OC(=O)N2Cc3cc4c(cc3C2)OCO4)CN1C(=O)[C@@H](NC(=O)[C@@H](NS(=O)(=O)c1cccc2ccccc12)C1CCCCC1)C(C)(C)C)C(=O)NS(=O)(=O)C1CC1 (stereo partly shown) [Compound 30p]
24,< 30 nM,CC(C)S(=O)(=O)NC(=O)[C@@]12C[C@H]1/C=C\CCCCC[C@H](NC(=O)OC(C)(C)C)C(=O)N1C[C@H](OC(=O)N3Cc4ccc5c(c4C3)OCO5)C[C@H]1C(=O)N2 [Compound 12e]
